Experimental data taken from US20090123907A1 (priority 2004, published 2009).

Tests used:
plasma proteins [1] = experiment: Protein resistance to 56° C. treatment; conditions: Na citrate 0.4%, lysine citrate 2.0%
Text: […]. In many cases heat treatments have been used to reduce or eliminated infectious agents from blood products. A problem with such an approach has been heat induced changes in the antigenicity of certain blood components. […]. A continuation of this experiment was set up to check also long term room temperature stability. It is generally believed that resistance to heat is an indicator of room temperature stability. That is the justification for estimating long term stability of products by using “accelerated” stability tests based on storage at an elevated temperature. In the presented experiment it is important to note that different plasma sample were used for the two different anticoagulants because a single sample was not large enough to provide sufficient volume for all of the tests over the life of the extended experiment.

clot formation = experiment: Clotting times (PT, PTT) of anticoagulated whole blood; type: biochemical
Procedure: In this experiment whole blood (an aliquot of which clotted within 10 minutes without anticoagulant) was modified by adding a number of different anticoagulant compositions. Sodium citrate was used as an anticoagulant at 0.65%, 0.75% and 0.9% by weight. These are all higher citrate levels than the usual 0.4% by weight. Amino acid citrates (lysine or arginine) were used at 0.65%, 0.75% and 0.9% by weight based on the weight of the citric acid. The amino acid counterion was used in sufficient quantity to adjust the pH as explained above.

[2] = Level of calcium measured in blood with citrate anticoagulants
Text: Lysine citrate is compared to traditional sodium citrate. The various citrate levels are expressed as a weight percentage of citrate so that equivalent levels have the same amount of citrate. The same blood was used throughout so that all of the samples started with the same calcium concentration. Since citrate is an effective chelator of calcium one expects the measured level of calcium to decrease with increasing levels of citrate as more and more of the calcium is “tied up” by the citrate. There is an equilibrium between free measurable calcium and calcium associated with citrate molecules. As the concentration of citrate is increased, calcium levels are lowered as there is a higher and higher probability that a given calcium ion will be interacting with a citrate molecule. […] There are at least two different ways of interpreting phenomenon. It is possible that when lysine molecules interact with citrate molecules, the interaction somehow prevents the chelation of calcium. This would explain the higher calcium measurements because there would effectively be a lower level of citrate present. […] That too would explain the higher measured calcium level but does little to solve the remainder of the conundrum. […] Thus, another advantage of lysine citrate is enhanced patient safety and a simpler plasmapheresis set up since it will not longer be necessary to administer protective doses of calcium.

[3] = tested on: Staphylococcus epidermidis; experiment: Colony counts of PRP samples subcultured on nutrient agar; type: cell-based; conditions: for Colony Counts: PRP 1% citrate spiked with about 10 cfu/ml, room temperature
Procedure: In the experiment anticoagulated blood (0.4% citrate by weight) was centrifuged to produce platelet Rich Plasma (PRP). To test samples of PRP citric acid stock solution containing sufficient lysine to bring the solution pH to 7.0 was added to increase the citrate concentration to 1% by weight. Following this addition the pH of the mixture was 6.7. It will be apparent to one of skill in the art that the precise ratio of basic amino acid to citrate can be altered to adjust the pH of the either the stock solution or the final blood mixture. One sample of original PRP was used as the Normal Control, and one sample of the lysine citrate PRP was used as the Citrate Control. One sample of original PRP was inoculated with cultured Staphylococcus epidermidis to a final concentration of about 10 cfu/ml—this formed the Spiked Normal. […] The samples were incubated at room temperature for five days. Each day the number of platelets in each sample was counted; each sample was also tested for LDH (lactate dehydrogenase) and for the ability to induce a clot. Following the tests an aliquot of each sample was subcultured on nutrient agar and incubated under growth conditions.

plasma proteins [4] = experiment: Protein resistance to glass beads; conditions: Na citrate 0.4%, lysine citrate 2.0%
Text: The above experiment was repeated using glass beads as a denaturing agent. Generally, contact of blood plasma with glass surfaces results in activation or denaturation. […].

[5] = Post 56° C. for five minutes, plasma
[6] = Post 30 min rocking with glass beads

In the case of `NCCCC[C@H](N)C(=O)O.O=C(O)CC(O)(CC(=O)O)C(=O)O` [Lysine Citrate, lysine citrate], the “Alk. Phos” value (plasma proteins [1]; [5]) is reported as 16 IU/.L, the LDH (plasma proteins [1]; [5]) is reported as 91 IU/L and the SGOT (plasma proteins [1]; [5]) is reported as 7 IU/L. For the same molecule, the SGPT (plasma proteins [1]; [5]) was 17 IU/L, the fIX (plasma proteins [1]; [5]) was 79% and the fV (plasma proteins [1]; [5]) was 69%. For the same molecule, the fVIII (plasma proteins [1]; [5]) was 88%, the fibrinogen (plasma proteins [1]; [5]) was 147 mg/dL and the “Alk. Phos” value (plasma proteins [1]; before heating, fresh plasma) was 23 IU/.L. The LDH (plasma proteins [1]; before heating, fresh plasma) was 97 IU/L, the SGOT (plasma proteins [1]; before heating, fresh plasma) was 10 IU/L and the SGPT (plasma proteins [1]; before heating, fresh plasma) was 20 IU/L. It also gave a fIX (plasma proteins [1]; before heating, fresh plasma) of 99%, a fV (plasma proteins [1]; before heating, fresh plasma) of 97% and a fVIII (plasma proteins [1]; before heating, fresh plasma) of 102%. The fibrinogen (plasma proteins [1]; before heating, fresh plasma) was 198 mg/dL, the “PT (4 hrs at RT)” value (clot formation; anticoagulant 0.65 wgt %) was 14.1 s and the “PTT (4 hrs at RT)” value (clot formation; anticoagulant 0.65 wgt %) was 33.8 s. The “PT (4 hrs at RT)” value (clot formation; anticoagulant 0.75 wgt %) was 16.6 s, the “PTT (4 hrs at RT)” value (clot formation; anticoagulant 0.75 wgt %) was 33.2 s and the “PT (4 hrs at RT)” value (clot formation; anticoagulant 0.90 wgt %) was 36.5 s. The “PTT (4 hrs at RT)” value (clot formation; anticoagulant 0.90 wgt %) was 44.4 s, the “Level of calcium measured” value ([2]; Citrate Level 0.01%) was 9.2 mg/dL and the “Level of calcium measured” value ([2]; Citrate Level 0.05%) was 9.1 mg/dL. For the same molecule, the “Level of calcium measured” value ([2]; Citrate Level 0.1%) was 7.1 mg/dL, the “Level of calcium measured” value ([2]; Citrate Level 0.25%) was 4.8 mg/dL and the “Level of calcium measured” value ([2]; Citrate Level 0.5%) was 1.6 mg/dL. For the same molecule, the “Level of calcium measured” value ([2]; Citrate Level 1%) was 0.4 mg/dL, the “Colony Counts” value ([3]; Day 1) was 10 and the “Colony Counts” value ([3]; Day 2) was 7. For the same molecule, the “Colony Counts” value ([3]; Day 3) was 5, the “Colony Counts” value ([3]; Day 4) was 9 and the “Colony Counts” value ([3]; Day 5) was 7. For the same molecule, the “bacteria following plating onto nutrient agar” value ([3]; unspiked PRP 1% citrate) was “no bacteria”, the “Alk. Phos” value (plasma proteins [4]; [6]) was 24 IU/.L and the LDH (plasma proteins [4]; [6]) was 96 IU/L. For the same molecule, the SGOT (plasma proteins [4]; [6]) was 12 IU/L, the SGPT (plasma proteins [4]; [6]) was 24 IU/L and the fIX (plasma proteins [4]; [6]) was 84%. For the same molecule, the fV (plasma proteins [4]; [6]) was 67%, the fVIII (plasma proteins [4]; [6]) was 62% and the fibrinogen (plasma proteins [4]; [6]) was 202 mg/dL. The “Alk. Phos” value (plasma proteins [4]; Pre glass beads) was 25 IU/.L, the LDH (plasma proteins [4]; Pre glass beads) was 99 IU/L and the SGOT (plasma proteins [4]; Pre glass beads) was 12 IU/L. The SGPT (plasma proteins [4]; Pre glass beads) was 26 IU/L, the fIX (plasma proteins [4]; Pre glass beads) was 98% and the fV (plasma proteins [4]; Pre glass beads) was 95%. For the same molecule, the fVIII (plasma proteins [4]; Pre glass beads) was 97% and the fibrinogen (plasma proteins [4]; Pre glass beads) was 247 mg/dL.
For `O=C([O-])CC(O)(CC(=O)[O-])C(=O)[O-].[Na+].[Na+].[Na+]` [Na Citrate, sodium citrate, reference compound], the “Alk. Phos” value (plasma proteins [1]; [5]) was 23 IU/.L, the LDH (plasma proteins [1]; [5]) was 84 IU/L and the SGOT (plasma proteins [1]; [5]) was 15 IU/L. For the same molecule, the SGPT (plasma proteins [1]; [5]) was 21 IU/L, the fIX (plasma proteins [1]; [5]) was 67% and the fV (plasma proteins [1]; [5]) was 45%. For the same molecule, the fVIII (plasma proteins [1]; [5]) was 56%, the fibrinogen (plasma proteins [1]; [5]) was 15 mg/dL and the “Alk. Phos” value (plasma proteins [1]; before heating, fresh plasma) was 30 IU/.L. For the same molecule, the LDH (plasma proteins [1]; before heating, fresh plasma) was 110 IU/L, the SGOT (plasma proteins [1]; before heating, fresh plasma) was 18 IU/L and the SGPT (plasma proteins [1]; before heating, fresh plasma) was 32 IU/L. The fIX (plasma proteins [1]; before heating, fresh plasma) was 104%, the fV (plasma proteins [1]; before heating, fresh plasma) was 98% and the fVIII (plasma proteins [1]; before heating, fresh plasma) was 109%. For the same molecule, the fibrinogen (plasma proteins [1]; before heating, fresh plasma) was 206 mg/dL, the “PT (4 hrs at RT)” value (clot formation; anticoagulant 0.65 wgt %) was 13.1 s and the “PTT (4 hrs at RT)” value (clot formation; anticoagulant 0.65 wgt %) was 28.7 s. The “PT (4 hrs at RT)” value (clot formation; anticoagulant 0.75 wgt %) was 14.1 s, the “PTT (4 hrs at RT)” value (clot formation; anticoagulant 0.75 wgt %) was 31.5 s and the “PT (4 hrs at RT)” value (clot formation; anticoagulant 0.90 wgt %) was 21.2 s. The “PTT (4 hrs at RT)” value (clot formation; anticoagulant 0.90 wgt %) was 35.0 s, the “Level of calcium measured” value ([2]; Citrate Level 0.01%) was 9.2 mg/dL and the “Level of calcium measured” value ([2]; Citrate Level 0.05%) was 8.7 mg/dL. The “Level of calcium measured” value ([2]; Citrate Level 0.1%) was 5.3 mg/dL, the “Level of calcium measured” value ([2]; Citrate Level 0.25%) was 2.5 mg/dL and the “Level of calcium measured” value ([2]; Citrate Level 0.5%) was 0.6 mg/dL. For the same molecule, the “Level of calcium measured” value ([2]; Citrate Level 1%) was 0 mg/dL, the “Alk. Phos” value (plasma proteins [4]; [6]) was 16 IU/.L and the LDH (plasma proteins [4]; [6]) was 24 IU/L. The SGOT (plasma proteins [4]; [6]) was 1 IU/L, the SGPT (plasma proteins [4]; [6]) was 1 IU/L and the fIX (plasma proteins [4]; [6]) was 14%. It also gave a fV (plasma proteins [4]; [6]) of 15%, a fVIII (plasma proteins [4]; [6]) of 29% and a fibrinogen (plasma proteins [4]; [6]) of 88 mg/dL. The “Alk. Phos” value (plasma proteins [4]; Pre glass beads) was 27 IU/.L, the LDH (plasma proteins [4]; Pre glass beads) was 100 IU/L and the SGOT (plasma proteins [4]; Pre glass beads) was 15 IU/L. The SGPT (plasma proteins [4]; Pre glass beads) was 29 IU/L, the fIX (plasma proteins [4]; Pre glass beads) was 103% and the fV (plasma proteins [4]; Pre glass beads) was 98%. The fVIII (plasma proteins [4]; Pre glass beads) was 102% and the fibrinogen (plasma proteins [4]; Pre glass beads) was 258 mg/dL.
